# From US20240383915A1, “OXAZEPINE COMPOUNDS AND USES THEREOF IN THE TREATMENT OF CANCER” (Genentech, Inc., priority 2021, published 2024)
# Legend:
# [1] = biological target: Raf-RBD/KRAS G12D interaction (Homo sapiens (Human), UniProt P01116, G12D); experiment: KRAS G12D NanoBRET assay; format: cell-based; conditions: HCT116
# Description: KRAS G12D NanoBRET Assay. Cellular target engagement was assessed by monitoring inhibition of the Raf-RBD/KRAS G12D interaction in a NanoBRET™ assay (Promega). […] Cells were seeded into 384-well white tissue culture-treated assay plates in 40 μL culture medium (RPMI-1640 with 10% fetal bovine serum, 2 mM glutamine, […] puromycin, and 4 ng/mL blasticidin) with doxycycline to induce KRAS G12D-nanoluciferase expression over 20-24 h at 37° C., 5% CO2. The culture medium was then removed and replaced with assay medium (Opti-MEM® with 4% fetal bovine serum) and 0.1 μM HaloTag618 ligand. During the subsequent 4 h incubation at 37° C., 5% CO2, the HaloTag618 ligand binds to the Halotag-labeled KRAS G12D. Compounds solubilized in DMSO were then added as dilution series to the wells in a total volume of 160 nL (0.4% DMSO final), and the plates were incubated overnight at 37° C., 5% CO2. In the final step, 10 μL NanoGlo substrate in Opti-MEM was added to each well, and the emission read at 460 nm (luciferase signal) and 610 nm (NanoBRET signal) on an EnVision plate reader (PerkinElmer). The Raf-RBD/KRAS G12D interaction results in bioluminescence resonance energy transfer (BRET) from the product of the luciferase reaction in the vicinity of the Raf-RBD to the HaloTag ligand acceptor on the KRAS G12D and generates the NanoBRET signal. Binding of compounds to KRAS G12D and disruption of its interaction with Raf-RBD results in reduction of this signal. The luciferase signal and NanoBRET signal for compound wells were divided by the average corresponding signal for DMSO control wells. Then the NanoBRET ratio was calculated by dividing the control-adjusted NanoBRET signal by the similarly adjusted luciferase signal. […] The normalized NanoBRET ratio results were plotted against compound concentration, and the data fit to a 4-parameter Hill equation to determine the IC50 values.
# [2] = biological target: KRAS G12D (Homo sapiens (Human), UniProt P01116, G12D); experiment: KRas (G12D) GDP HTRF (BODIPY-GDP exchange TR-FRET); format: biochemical
# KRAS G12D, sequence (P01116-2 other isoform, or with tags, fused parts or gaps G12D): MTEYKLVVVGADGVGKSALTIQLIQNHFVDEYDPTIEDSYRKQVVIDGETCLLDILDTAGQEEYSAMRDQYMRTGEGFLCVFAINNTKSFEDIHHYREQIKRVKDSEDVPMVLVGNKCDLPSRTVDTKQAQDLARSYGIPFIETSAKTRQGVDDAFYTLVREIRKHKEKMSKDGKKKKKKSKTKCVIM
# Description: (§1) KRAS Biochemical Assay—BODIPY-GDP Exchange TR-FRET. Biochemical compound potencies were assessed by evaluating inhibition of SOS1-mediated nucleotide exchange in KRAS G12D. The SOS1-promoted exchange of fluorescently-labeled GDP (BODIPY-GDP) was monitored by time-resolved fluorescence resonance energy transfer (TR-FRET). Compounds solubilized in DMSO were dispensed as concentration series into 384-well white assay plates. A preformed complex of biotin-tagged recombinant human KRAS (1.5 nM mutant G12D or wild type) and 0.15 nM terbium-labeled streptavidin (CisBIO) prepared in 10 μL/well assay buffer (20 mM HEPES, pH 7.5, 50 mM NaCl, 10 mM MgCl2, 0.01% Tween-20 and 1 mM dithiothreitol) was added and allowed to incubate for 10-minutes. The reaction was initiated with the addition of 5 μL of 3 nM recombinant human SOS1 and 300 nM BODIPY-GDP in assay buffer. After a 60-minute incubation, the fluorescence was measured with excitation at 337 nm and emission at 490 and 520 nm. The TR-FRET ratio was determined as the fluorescence at 520 nm divided by the fluorescence at 490 nm multiplied by 10,000. […] The normalized TR-FRET results were plotted against compound concentration, and the data fit to a 4-parameter Hill equation to determine the IC50 values.
# [3] = biological target: KRAS wild type (Homo sapiens (Human), UniProt P01116); experiment: KRas (wt) GDP HTRF (BODIPY-GDP exchange TR-FRET); format: biochemical
# KRAS wild type, sequence (P01116-2 other isoform, or with tags, fused parts or gaps): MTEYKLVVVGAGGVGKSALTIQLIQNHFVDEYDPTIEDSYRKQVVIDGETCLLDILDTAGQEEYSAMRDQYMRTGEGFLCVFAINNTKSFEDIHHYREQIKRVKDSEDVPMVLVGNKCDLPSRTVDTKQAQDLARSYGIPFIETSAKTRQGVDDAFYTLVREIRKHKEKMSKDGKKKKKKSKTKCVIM
# Description: as §1
# [4] = biological target: KRas (Homo sapiens (Human), UniProt P01116); experiment: KRas GDP HTRF (BODIPY-GDP exchange TR-FRET); format: biochemical
# KRas, sequence (P01116-2 other isoform, or with tags, fused parts or gaps): as above
# Procedure, shortened: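 Inhibition of SOS1-mediated exchange of BODIPY-GDP on KRAS G12D, started with 3 nM recombinant human SOS1 and 300 nM BODIPY-GDP and read after 60 min. TR-FRET excitation 337 nm, ratio 520/490 nm ×10,000. IC50 from 4-parameter Hill fit of normalized data.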
# [5] = system: PC-9 cells; experiment: PC9 proliferation assay; format: cell-based, human; conditions: Homo sapiens, PC-9, PC9; read-out: PC9 Prolif IC50 (G12V)
# [6] = system: SW480 cells; experiment: SW480 proliferation assay; format: cell-based; conditions: Homo sapiens, SW480, SW480; read-out: SW480 Prolif IC50 (G12V)
# [7] = biological target: KRas(G12V) (Homo sapiens (Human), UniProt P01116, G12V); experiment: KRas(G12V) GDP HTRF (BODIPY-GDP exchange TR-FRET); format: biochemical
# KRas(G12V), sequence (P01116-2 other isoform, or with tags, fused parts or gaps G12V): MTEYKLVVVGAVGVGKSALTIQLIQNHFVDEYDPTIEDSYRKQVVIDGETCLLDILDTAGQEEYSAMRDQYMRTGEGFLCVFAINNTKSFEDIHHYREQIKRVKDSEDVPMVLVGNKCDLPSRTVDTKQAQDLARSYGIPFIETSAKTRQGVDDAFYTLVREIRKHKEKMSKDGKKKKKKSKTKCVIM
# Raf-RBD/KRAS G12D interaction, sequence (P01116-2 other isoform, or with tags, fused parts or gaps G12D): as the sequence (P01116-2 other isoform, or with tags, fused parts or gaps G12D) above
IC50 [1] [nM],IC50 [2] [nM],IC50 [3] [nM],IC50 [4] [nM],IC50 [5] [nM],IC50 [6] [nM],IC50 [7] [nM],SMILES
≥ 10000,817,4120,,,,,"C=C1CN2CCC[C@@]2(COc2nc3c4c(c(Cl)c(-c5nc(N)cc(C)c5C(F)(F)F)c(F)c4n2)OCCN3CCN(C)C)C1 (single isomer, unassigned) [Example 514]"
≥ 10000,480,2680,,,,,"C=C1CN2CCC[C@@]2(COc2nc3c4c(c(F)c(-c5nc(N)cc(C)c5C(F)(F)F)c(F)c4n2)OCCN3CCN(C)C)C1 (single isomer, unassigned) [Example 524]"
,,,3.2,8200,400,0.81,"Cc1cc(N)nc(-c2c(Cl)c3c4c(nc(OCC56CCC(CC5)OC6)nc4c2F)N([C@H](C)c2cccnc2N)CCO3)c1C(F)(F)F [Example 157, 6-((R)-2-((2-oxabicyclo[2.2.2]octan-4-yl)methoxy)-4-((R)-1-(2-aminopyridin-3-yl)ethyl)-8-chloro-10-fluoro-5,6-dihydro-4H-[1,4]oxazepino[5,6,7-de]quinazolin-9-yl)-4-methyl-5-(trifluoromethyl)pyridin-2-amine]"
≥ 10000,4160,109000,,,,,"Cc1cc(N)nc(-c2cc3ncnc4c3c(c2Cl)OCCN4CCN(C)C)c1C(F)(F)F [Example 501, 6-(8-Chloro-4-(2-(dimethylamino)ethyl)-5,6-dihydro-4H-[1,4]oxazepino[5,6,7-de]quinazolin-9-yl)-4-methyl-5-(trifluoromethyl)pyridin-2-amine]"
≥ 10000,4620,94300,,,,,CNCCN1CCOc2c(Cl)c(-c3nc(N)cc(C)c3C(F)(F)F)cc3ncnc1c23 [Example 503]
,29,128,,,,,C=C1CN2CCC[C@@]2(COc2nc3c4c(c(Cl)c(-c5nc(N)cc(C)c5C(F)(F)F)c(F)c4n2)OCCN3C2CCNC2)C1 (stereo partly shown) [Example 518]

# The next lines start with the compound.
SMILES,IC50 [1] [nM],IC50 [2] [nM],IC50 [3] [nM],IC50 [4] [nM],IC50 [5] [nM],IC50 [6] [nM],IC50 [7] [nM]
"Cc1cc(N)nc(-c2cc3ncnc4c3c(c2Cl)OC[C@H](CC#N)N4C2CCNC2)c1C(F)(F)F (single isomer, unassigned) [Example 507]",≥ 10000,276,8650,,,,
"Cc1cc(N)nc(-c2cc3ncnc4c3c(c2Cl)OC[C@H](CC#N)N4C2CCNC2)c1C(F)(F)F (single isomer, unassigned) [Example 508]",≥ 10000,472,8110,,,,
"Cc1cc(N)nc(-c2c(Cl)c3c4c(nc(OCC5CCCN(C)C5)nc4c2F)N([C@H](C)c2cccnc2N)CCO3)c1C(F)(F)F (stereo partly drawn) [Example 137, 6-((9R)-4-((R)-1-(2-aminopyridin-3-yl)ethyl)-8-chloro-10-fluoro-2-((1-methylpiperidin-3-yl)methoxy)-5,6-dihydro-4H-[1,4]oxazepino[5,6,7-de]quinazolin-9-yl)-4-methyl-5-(trifluoromethyl)pyridin-2-amine]",,,,0.159,1100,140,0.07
"Cc1cc(N)nc(-c2c(Cl)c3c4c(nc(OCCC5CCCN5C)nc4c2F)N([C@H](C)c2cccnc2N)CCO3)c1C(F)(F)F (stereo partly drawn) [Example 139, 6-((9R)-4-((R)-1-(2-aminopyridin-3-yl)ethyl)-8-chloro-10-fluoro-2-(2-(1-methylpyrrolidin-2-yl)ethoxy)-5,6-dihydro-4H-[1,4]oxazepino[5,6,7-de]quinazolin-9-yl)-4-methyl-5-(trifluoromethyl)pyridin-2-amine]",,,,0.205,830,240,0.08
"Cc1cc(N)nc(-c2c(Cl)c3c4c(nc(OCC5COCCN5C)nc4c2F)N([C@H](C)c2cccnc2N)CCO3)c1C(F)(F)F (stereo partly drawn) [Example 140, 6-((9R)-4-((R)-1-(2-aminopyridin-3-yl)ethyl)-8-chloro-10-fluoro-2-((4-methylmorpholin-3-yl)methoxy)-5,6-dihydro-4H-[1,4]oxazepino[5,6,7-de]quinazolin-9-yl)-4-methyl-5-(trifluoromethyl)pyridin-2-amine]",,,,0.6,3800,51,0.17
"Cc1cc(N)nc(-c2c(Cl)c3c4c(nc(OCC56COC(C5)C6)nc4c2F)N([C@H](C)c2cccnc2N)CCO3)c1C(F)(F)F [Example 141, 6-((R)-2-((2-oxabicyclo[2.1.1]hexan-4-yl)methoxy)-4-((R)-1-(2-aminopyridin-3-yl)ethyl)-8-chloro-10-fluoro-5,6-dihydro-4H-[1,4]oxazepino[5,6,7-de]quinazolin-9-yl)-4-methyl-5-(trifluoromethyl)pyridin-2-amine]",,,,0.77,8100,76,0.24
"COCC12COC(COc3nc4c5c(c(Cl)c(-c6nc(N)cc(C)c6C(F)(F)F)c(F)c5n3)OCCN4[C@H](C)c3cccnc3N)(C1)C2 [Example 149, 6-((R)-4-((R)-1-(2-aminopyridin-3-yl)ethyl)-8-chloro-10-fluoro-2-((4-(methoxymethyl)-2-oxabicyclo[2.1.1]hexan-1-yl)methoxy)-5,6-dihydro-4H-[1,4]oxazepino[5,6,7-de]quinazolin-9-yl)-4-methyl-5-(trifluoromethyl)pyridin-2-amine]",,,,0.78,16000,74,0.21
"Cc1cc(N)nc(-c2c(Cl)c3c4c(nc(OCC56COC(CF)(C5)C6)nc4c2F)N([C@H](C)c2cccnc2N)CCO3)c1C(F)(F)F [Example 154, 6-((R)-4-((R)-1-(2-aminopyridin-3-yl)ethyl)-8-chloro-10-fluoro-2-((1-(fluoromethyl)-2-oxabicyclo[2.1.1]hexan-4-yl)methoxy)-5,6-dihydro-4H-[1,4]oxazepino[5,6,7-de]quinazolin-9-yl)-4-methyl-5-(trifluoromethyl)pyridin-2-amine]",,,,1.1,14000,91,0.48
Cc1cc(N)nc(-c2cc3ncnc4c3c(c2Cl)OCCN4C2CCNC2)c1C(F)(F)F (stereo not shown) [Example 505],≥ 10000,1730,66400,,,,
Cc1cc(N)nc(-c2cc3ncnc4c3c(c2Cl)OCCN4C2CCNC2)c1C(F)(F)F (stereo not shown) [Example 506],≥ 10000,2400,55000,,,,
"Cc1cc(N)nc(-c2cc3nc(OC[C@@H]4C[C@@H](F)CN4C)nc4c3c(c2Cl)OCCN4CCN(C)C)c1C(F)(F)F [Example 509, 6-(8-Chloro-4-(2-(dimethylamino)ethyl)-2-(((2S,4R)-4-fluoro-1-methylpyrrolidin-2-yl)methoxy)-5,6-dihydro-4H-[1,4]oxazepino[5,6,7-de]quinazolin-9-yl)-4-methyl-5-(trifluoromethyl)pyridin-2-amine]",9850,164,1660,,,,
C=C1CN2CCC[C@@]2(COc2nc3c4c(c(Cl)c(-c5c(F)ccc6cnn(C)c56)cc4n2)OCCN3CCN(C)C)C1 [Example 512],,174,1110,,,,
C=C1CN2CCC[C@@]2(COc2nc3c4c(c(Cl)c(-c5nc(N)cc(C)c5C(F)(F)F)c(F)c4n2)OCCN3C2CCNC2)C1 (stereo partly shown) [Example 515],,3.39,20,,,,
